Source: the supplement of paper PMC11061612

Key:
Assay in all cases: Bliss excess, mean over the matrix (fraction); higher = more synergy
[1] = test system: D-283MED (Other Solid Carcinomas)
In short: (§1)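 Cell lines grown in DMEM/F12 or RPMI with 10% FBS were plated in 1536-well plates and held 24 hours at 37°C, 5% CO2 before 72 hours of exposure to two-drug dose matrices, with DMSO typically at 0.2%. CellTiter-Glo 2.0 luminescence gave viability, which was converted to inhibition. Vehicle wells were set to 0 and blank wells to 1. Combination Emax is the second-highest inhibition in the matrix, and Bliss excess is the observed combination effect minus the expected EA + EB − EA·EB, where EA and EB are the single-agent effects.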

[2] = test system: SW48 (Colorectal Carcinoma)
In short: as §1

[3] = test system: SK-LMS-1 (Other Solid Carcinomas)
In short: as §1

[4] = test system: FU-OV-1 (Ovarian Carcinoma)
In short: as §1

[5] = test system: SLVL (B-Cell Non-Hodgkin's Lymphoma)
In short: as §1

H4 (Low Grade Glioma) = test system: H4 (Low Grade Glioma)
In short: as §1

Saos-2 (Osteosarcoma) = test system: Saos-2 (Osteosarcoma)
In short: as §1

[6] = test system: BICR78 (Oral Cavity Carcinoma)
In short: as §1

EW-22 (Ewing's Sarcoma) = test system: EW-22 (Ewing's Sarcoma)
In short: as §1

SK-MEL-1 (Melanoma) = test system: SK-MEL-1 (Melanoma)
In short: as §1

[7] = test system: WSU-DLCL2 (B-Cell Non-Hodgkin's Lymphoma)
In short: as §1

MSTO-211H (Mesothelioma) = test system: MSTO-211H (Mesothelioma)
In short: as §1

HCC38 (Breast Carcinoma) = test system: HCC38 (Breast Carcinoma)
In short: as §1

[8] = test system: NOMO-1 (Acute Myeloid Leukemia)
In short: as §1

Row | SMILES | Bliss excess [1] | Bliss excess [2] | Bliss excess [3] | Bliss excess [4] | Bliss excess [5] | Bliss excess (H4 (Low Grade Glioma)) | Bliss excess (Saos-2 (Osteosarcoma)) | Bliss excess [6] | Bliss excess (EW-22 (Ewing's Sarcoma)) | Bliss excess (SK-MEL-1 (Melanoma)) | Bliss excess [7] | Bliss excess (MSTO-211H (Mesothelioma)) | Bliss excess (HCC38 (Breast Carcinoma)) | Bliss excess [8]
1 | C[C@@H](Oc1cc(-c2cnn(C3CCNCC3)c2)cnc1N)c1c(Cl)ccc(F)c1Cl [Crizotinib] + Cn1cnc2c(F)c(Nc3ccc(Br)cc3Cl)c(C(=O)NOCCO)cc21 [Selumetinib] (first compound max 10 µM, 7x7, partner max 10 µM) | -0.0049 | -0.0323 | 0.0367 | 0.0748 | -0.0414 | 0.0034 | -0.0337 | 0.0006 | -0.0226 | -0.0618 | -0.0458 | 0.0294 | -0.0447 | 0.0157
2 | O=C(c1cc(Cc2n[nH]c(=O)c3ccccc23)ccc1F)N1CCN(C(=O)C2CC2)CC1 [Olaparib] + CC1(C)CCC(CN2CCN(c3ccc(C(=O)NS(=O)(=O)c4ccc(NCC5CCOCC5)c([N+](=O)[O-])c4)c(Oc4cnc5[nH]ccc5c4)c3)CC2)=C(c2ccc(Cl)cc2)C1 [Venetoclax] (first compound max 10 µM, 7x7, partner max 1 µM) | 0.0445 | -0.0239 | -0.012 | -0.0467 | 0.0864 | -0.011 | -0.0289 | -0.0733 | 0.0348 | -0.023 | 0.0235 | -0.0264 | -0.0247 | 0.0666
3 | O=C(c1cc(Cc2n[nH]c(=O)c3ccccc23)ccc1F)N1CCN(C(=O)C2CC2)CC1 [Olaparib] + CN(CC[C@H](CSC1=CC=CC=C1)NC2=C(C=C(C=C2)S(=O)(=O)NC(=O)C3=CC=C(C=C3)N4CCC(CC4)[C@H](C5=CC=CC=C5C6=CC=C(C=C6)Cl)O)S(=O)(=O)C(F)(F)F)CCO [AZD4320] (first compound max 10 µM, 7x7, partner max 1 µM) | 0.0204 | -0.0239 | -0.0169 | -0.0355 | 0.0356 | 0.0106 | -0.0312 | -0.0656 | 0.0385 | -0.0299 | 0.0579 | -0.0173 | -0.0541 | 0.034
4 | O=C(c1cc(Cc2n[nH]c(=O)c3ccccc23)ccc1F)N1CCN(C(=O)C2CC2)CC1 [Olaparib] + COc1nnc2ccc(N3CCC(c4ccc(OCCN5CCN(C)C(=O)[C@H]5C)cc4)CC3)nn12 [AZD5153] (first compound max 10 µM, 7x7, partner max 1 µM) | -0.0542 | -0.071 | -0.0329 | -0.0107 | 0.0142 | -0.0248 | -0.02 | -0.0458 | 0.0369 | -0.0316 | -0.0091 | -0.0085 | -0.0793 | -0.0589
5 | O=C(c1cc(Cc2n[nH]c(=O)c3ccccc23)ccc1F)N1CCN(C(=O)C2CC2)CC1 [Olaparib] + Cc1c2c(nn1C)CSCc1cc(n(C)n1)CSc1cc(c3ccccc3c1)OCCCc1c(C(=O)O)n(C)c3c-2c(Cl)ccc13 [AZD5991] (first compound max 10 µM, 7x7, partner max 1 µM) | 0.0172 | -0.0253 | -0.0076 | -0.071 | -0.0034 | 0.0256 | -0.0087 | -0.0643 | -0.016 | -0.0301 | 0.0378 | -0.029 | -0.0457 | -0.0167
6 | N#Cc1cnc(Nc2cc(NC[C@H]3CNCCO3)c(C(F)(F)F)cn2)cn1 [SRA737] + C=CCn1c(=O)c2cnc(Nc3ccc(N4CCN(C)CC4)cc3)nc2n1-c1cccc(C(C)(C)O)n1 [AZD1775] (first compound max 10 µM, partner max 1 µM) | 0.0779 | 0.0468 | 0.112 | 0.0719 | 0.0581 | 0.0327 | 0.0939 | -0.0326 | 0.0315 | -0.0195 | 0.205 | 0.131 | 0.0088 | 0.0706
7 | N#Cc1cnc(Nc2cc(NC[C@H]3CNCCO3)c(C(F)(F)F)cn2)cn1 [SRA737] + Nc1ccn([C@@H]2O[C@H](CO)[C@@H](O)C2(F)F)c(=O)n1 [Gemcitabine] (first compound max 10 µM, 7x7, partner max 0.3 µM) | 0.0135 | 0.0107 | 0.0202 | -0.0233 | 0.0004 | 0.0511 | 0.0276 | 0.068 | -0.0202 | 0.0048 | 0.111 | -0.0082 | -0.0054 | -0.0169
8 | N#Cc1cnc(Nc2cc(NC[C@H]3CNCCO3)c(C(F)(F)F)cn2)cn1 [SRA737] + O=c1[nH]cc(F)c(=O)[nH]1 [5-Fluorouracil] (first compound max 10 µM, 7x7, partner max 20 µM) | -0.0048 | -0.0588 | -0.0143 | -0.0284 | -0.0551 | -0.0189 | -0.0179 | 0.0904 | 0.0416 | -0.0178 | 0.114 | 0.0301 | 0.0257 | -0.0007
9 | CC1(C)CCC(CN2CCN(c3ccc(C(=O)NS(=O)(=O)c4ccc(NCC5CCOCC5)c([N+](=O)[O-])c4)c(Oc4cnc5[nH]ccc5c4)c3)CC2)=C(c2ccc(Cl)cc2)C1 [Venetoclax] + CS(=O)(=O)CCNCc1ccc(-c2ccc3ncnc(Nc4ccc(OCc5cccc(F)c5)c(Cl)c4)c3c2)o1 [Lapatinib] (first compound max 1 µM, 7x7, partner max 10 µM) | -0.0416 | 0.0163 | -0.0127 | -0.0697 | 0.017 | -0.0188 | -0.0131 | -0.0451 | 0.0031 | 0.0097 | 0.0902 | -0.019 | -0.0355 | 0.0105
